Structures can show the parent of a compound that is named as a salt.
Experiments:
hPPARγ1 = biological target: T1, hPPARγ1 (Homo sapiens, UniProt P37231); assay: Determination of hPPARγ activity (GAL4-LBD luciferase reporter in HEK-293 cells); type: cell-based; conditions: 1 μM compound, transfected HEK-293 cells
T1 construct: expressed in transfected cells; host or cells: HEK-293
T1 sequence (P37231 238-503 limits assumed): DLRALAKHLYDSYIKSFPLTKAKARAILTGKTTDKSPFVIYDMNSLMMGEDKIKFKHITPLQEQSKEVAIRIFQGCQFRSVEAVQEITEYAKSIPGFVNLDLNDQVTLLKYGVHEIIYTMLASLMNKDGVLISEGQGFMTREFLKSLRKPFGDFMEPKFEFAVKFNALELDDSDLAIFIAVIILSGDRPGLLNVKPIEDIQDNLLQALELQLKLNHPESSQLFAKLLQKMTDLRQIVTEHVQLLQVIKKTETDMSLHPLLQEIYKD
Description: b) Determination of hPPARγ Activity
Ligand binding domain of hPPARγ1 was fused to DNA binding domain of Yeast transcription factor GAL4 in eucaryotic expression vector. Using lipofectamine (Gibco BRL, USA) as transfecting reagent HEK-293 cells were transfected with this plasmid and a reporter plasmid harboring the luciferase gene driven by a GAL4 specific promoter. Compound was added at 1 μM concentration after 48 hrs of transfection and incubated overnight. Luciferase activity as a function of drug binding/activation capacity of PPARγ1 was measured using Packard Luclite kit (Packard, USA) in Packard Top Count (Ivan Sadowski, Brendan Bell, Peter Broag and Melvyn Hollis. Gene. 1992. 118: 137-141; Guide to Eukaryotic Transfections with Cationic Lipid Reagents. Life Technologies, GIBCO BRL, USA).

hPPARα = biological target: T2, hPPARα (Homo sapiens, UniProt Q07869); assay: Determination of hPPARα activity (GAL4-LBD luciferase reporter in HEK-293 cells); type: cell-based; conditions: 50 μM compound, transfected HEK-293 cells
T2 construct: expressed in transfected cells; host or cells: HEK-293
T2 sequence (Q07869 239-466 limits assumed): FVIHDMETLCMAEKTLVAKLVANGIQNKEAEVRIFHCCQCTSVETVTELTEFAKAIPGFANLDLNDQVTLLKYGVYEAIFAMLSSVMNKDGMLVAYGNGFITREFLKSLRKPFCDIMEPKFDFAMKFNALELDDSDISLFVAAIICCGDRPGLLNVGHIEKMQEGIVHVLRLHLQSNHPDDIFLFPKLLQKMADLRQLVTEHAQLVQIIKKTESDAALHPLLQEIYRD
Description: a) Determination of hPPARα Activity
Ligand binding domain of hPPARα was fused to DNA binding domain of Yeast transcription factor GAL4 in eucaryotic expression vector. Using superfect (Qiagen, Germany) as transfecting reagent HEK-293 cells were transfected with this plasmid and a reporter plasmid harboring the luciferase gene driven by a GAL4 specific promoter. Compound was added at different concentrations after 42 hrs of transfection and incubated overnight. Luciferase activity as a function of compound binding/activation capacity of PPARα was measured using Packard Luclite kit (Packard, USA) in Top Count (Ivan Sadowski, Brendan Bell, Peter Broag and Melvyn Hollis. Gene. 1992. 118: 137 -141; Superfect Transfection Reagent Handbook. February 1997, Qiagen, Germany).

[1] = Single dose oral pharmacokinetic studies; type: in vivo; conditions: male Wistar rats, suspension in 0.25% sodium CMC
Description: Single Dose Oral Pharmacokinetic Studies
Male Wistar rats (220-250 gm) were used in the experiments. The animals were maintained under standard laboratory conditions and had free access to feed and water ad libitum. Before experimentation animals were fasted overnight (˜15 h) during which they had free access to water ad libitum.
An amount equivalent to 30 mg of drug was weighed accurately and transferred into a clean mortar and triturated to obtain a fine powder. To this 0.5 ml of 0.25% sodium carboxy methyl cellulose (sodium CMC) was added to obtain a paste. To the obtained paste remaining 2.5 ml of sodium CMC was added to make up the volume to 3 ml. Based on the animal weight appropriate volume (body weight×3) of the prepared suspension was administered through oral gavage.
After dosing, at designated time points (0.5, 1, 2, 3, 5, 8, 12 and 24 h) 200 μl of blood was collected from retro orbital plexus into 0.5 ml eppendorff tubes containing EDTA (10 μl of 200 mg/ml solution in Milli Q water). Blood was centrifuged at 12,800 rpm for 5 min and obtained plasma and stored at −20° C. till further analysis.
100 μl plasma was transferred into a clean and dry centrifuge tube. To this internal standard (10 μl of 100 μg/ml) was added and extracted with 2 ml of extraction recovery solvent. The contents were vortexed for 2 min, followed by centrifugation for 10 min at 2800 rpm. Clear organic layer (2×0.75 ml) was separated and dried under nitrogen gas at 50° C. The residue was reconstituted with 150 μl of mobile phase and vortexed for 20 sec, from this 50 μl was injected onto HPLC column.
Pharmacokinetic parameters were calculated by non-compartmental model analysis. The peak plasma concentration (Cmax) and the corresponding time (Tmax) were directly obtained from the raw data. The area under the plasma concentration versus time curve up to the last quantifiable time point, AUC(0-t) was obtained by the linear and log-linear trapezoidal summation. The AUC(0-t) extrapolated to infinity (i.e., AUC(0-∞)) by adding the quotient of Clast/Kel, where Clast represents the last measurable time concentration and Kel represents the apparent terminal rate constant. Kel was calculated by the linear regression of the log-transformed concentrations of the drug in the terminal phase. The half-life of the terminal elimination phase was obtained using the relationship

C57BL/KsJ-db/db mice = assay: Blood sugar and triglyceride lowering in db/db mice; type: in vivo, mouse; conditions: dose 0.03 mg/kg, oral gavage daily for 6 days
Description: Mutation in colonies of laboratory animals and different sensitivities to dietary regimens have made the development of animal models with non-insulin dependent diabetes and hyperlipidemia associated with obesity and insulin resistance possible. Genetic models such as db/db and ob/ob (Diabetes, (1982)31(1): 1-6) mice and zucker fa/fa rats have been developed by the various laboratories for understanding the pathophysiology of disease and testing the efficacy of new antidiabetic compounds (Diabetes, (1983)32: 830-838; Annu. Rep. Sankyo Res. Lab. (1994).46:1-57). […]
The random blood sugar and triglyceride levels were measured by collecting blood (100 μl) through orbital sinus, using heparinised capillary in tubes containing EDTA which was centrifuged to obtain plasma. The plasma glucose and triglyceride levels were measured spectrometrically, by glucose oxidase and glycerol 3 PO4 oxidase/peroxidase enzyme (Dr. Reddy's Lab. Diagnostic Division Kits, Hyderabad, India) methods respectively.
The blood sugar and triglycerides lowering activities of the test compound was calculated according to the formula.
(§1) 1. Percent reduction in Blood sugar/triglycerides/total cholesterol were calculated according to the formula: [formula]

Swiss albino mice = assay: Plasma triglyceride and total cholesterol lowering activity in Swiss albino mice and guinea pigs; type: in vivo, mouse; conditions: dose 3 mg/kg, oral, 6 days
Description: c) Plasma Triglyceride and Total Cholesterol Lowering Activity in Swiss Albino Mice and Guinea Pigs
Male Swiss albino mice (SAM) and male Guinea pigs were obtained from NIN and housed in DRF animal house. All these animals were maintained under 12 hour light and dark cycle at 25±1° C. Animals were given standard laboratory chow (NIN, Hyderabad, India) and water, ad libitum. SAM of 20-25 g body weight range and Guinea pigs of 500-700 g body weight range were used (Oliver, P., Plancke, M. O., Marzin, D., Clavey, V., Sauzieres, J and Fruchart, J. C. Effects of fenofibrate, gemfibrozil and nicotinic acid on plasma lipoprotein levels in normal and hyperlipidemic mice. Atherosclerosis. 1988. 70: 107-114).
The test compounds were administered orally to Swiss albino mice at 0.3 to 30 mg/kg/day dose for 6 days. Control mice were treated with vehicle (0.25% Carboxymethylcellulose; dose 10 ml/kg). The test compounds were administered orally to Guinea pigs at 0.3 to 30 mg/kg/day dose for 6 days. Control animals were treated with vehicle (0.25% Carboxymethylcellulose; dose 5 ml/kg).
The blood samples were collected in fed state 1 hour after drug administration on 0 and 6 day of treatment. The blood was collected from the retro-orbital sinus through heparinised capillary in EDTA containing tubes. After centrifugation, plasma sample was separated for triglyceride and total cholesterol (Wieland, O. Methods of Enzymatic analysis. Bergermeyer, H. O., Ed., 1963. 211-214; Trinder, P. Ann. Clin. Biochem. 1969. 6: 24-27). Measurement of plasma triglyceride, total cholesterol and HDL were done using commercial kits (Dr. Reddy's Diagnostic Division, Hyderabad, India).
as §1

CCO[C@@H](Cc1ccc(OCCN2CCSc3ccccc32)cc1)C(=O)O (as salt: salt) [Example 3, Dicyclohexylamine salt of (−)-3-[4-[2-(3,4-dihydro-2H-1,4-benzothiazin-4-yl)ethoxy]phenyl]-2-ethoxy propanoic acid]
melting point: 110 °C

CCO[C@@H](Cc1ccc(OCCN2CCSc3ccccc32)cc1)C(=O)O [Example 2, Metformin salt of (−)-3-[4-[2-(3,4-dihydro-2H-1,4-benzothiazin-4-yl)ethoxy]phenyl]-2-ethoxy propanoic acid]
PPARγ (luciferase activity) (hPPARγ1): 9.8 | PPARα (luciferase activity) (hPPARα): 3.0 | Ke1 [1]: 0.17 ± 0.03 h⁻¹ | AUC(0-inf) ([1]; rat, plasma, 30 mg/kg): 320 ± 36.2 µg·h/mL | AUC(0-t) ([1]; rat, plasma, 30 mg/kg): 315 ± 34.7 µg·h/mL | Cmax ([1]; rat, plasma, 30 mg/kg): 77.2 ± 24.1 µg/mL | Tmax ([1]; rat, plasma, 30 mg/kg): 0.63 ± 0.25 h | half-life ([1]; rat, plasma, 30 mg/kg): 4.25 ± 0.86 h | Reduction in Blood Glucose Level (%) (C57BL/KsJ-db/db mice): 56% | Triglyceride Lowering (%) (C57BL/KsJ-db/db mice): 59% | Triglyceride Lowering (%) (Swiss albino mice): 55%

CCO[C@@H](Cc1ccc(OCCN2CCSc3ccccc32)cc1)C(=O)O (as salt: salt) [Example 5, -Lysine salt of (−)-3-[4-[2-(3,4-dihydro-2H-1,4-benzothiazin-4-yl)ethoxy]phenyl]-2-ethoxy propanoic acid]
melting point: 142 to 144 °C

CCOC(Cc1ccc(OCCN2CCSc3ccccc32)cc1)C(=O)O (stereo in doubt) [Example 4, (R)-(+)-Methyl benzylamine salt of (−)-3-[4-[2-(3,4-dihydro-2H-1,4-benzothiazin-4-yl)ethoxy]phenyl]-2-ethoxy propanoic acid]
Triglyceride Lowering (%) (Swiss albino mice): 55%

CCO[C@@H](Cc1ccc(OCCN2CCSc3ccccc32)cc1)C(=O)O (as salt: salt) [Example 2, Metformin salt of (−)-3-[4-[2-(3,4-dihydro-2H-1,4-benzothiazin-4-yl)ethoxy]phenyl]-2-ethoxy propanoic acid]
melting point: 155 to 158 °C

CCO[C@@H](Cc1ccc(OCCN2CCSc3ccccc32)cc1)C(=O)O [Example 3, Dicyclohexylamine salt of (−)-3-[4-[2-(3,4-dihydro-2H-1,4-benzothiazin-4-yl)ethoxy]phenyl]-2-ethoxy propanoic acid]
PPARγ (luciferase activity) (hPPARγ1): 19 | PPARα (luciferase activity) (hPPARα): 5.2

CCO[C@@H](Cc1ccc(OCCN2CCSc3ccccc32)cc1)C(=O)O [Example 5, -Lysine salt of (−)-3-[4-[2-(3,4-dihydro-2H-1,4-benzothiazin-4-yl)ethoxy]phenyl]-2-ethoxy propanoic acid]
PPARγ (luciferase activity) (hPPARγ1): 7.6 | PPARα (luciferase activity) (hPPARα): 3.5 | Triglyceride Lowering (%) (Swiss albino mice): 46%

CCO[C@@H](Cc1ccc(OCCN2CCSc3ccccc32)cc1)C(=O)O [Example 6, Amino guanidine hydrogen carbonate salt of (−)-3-[4-[2-(3,4-dihydro-2H-1,4-benzothiazin-4-yl)ethoxy]phenyl]-2-ethoxy propanoic acid]
PPARγ (luciferase activity) (hPPARγ1): 21 | PPARα (luciferase activity) (hPPARα): 4.7

CCO[C@@H](Cc1ccc(OCCN2CCSc3ccccc32)cc1)C(=O)O [Example 1]
Triglyceride Lowering (%) (Swiss albino mice): 66%

CCO[C@@H](Cc1ccc(OCCN2CCSc3ccccc32)cc1)C(=O)O (as salt: salt) [Example 1]
melting point: 126 to 128 °C

Source: patent publication US20020142993A1, “Pharmaceutically acceptable salts of bicyclic compounds” (DR. REDDY'S LABORATORIES LTD., priority 2000, published 2002)
